Like-named read-outs stand apart in the source and are kept apart here.
Key:
[1] = system: maximal electricroshock-induced seizures; conditions: cited from earlier work; for protective activity of clonazepam against maximum electroshock: co-administration
[2] = system: pilocarpine induced status-epilepticus; assay: Pilocarpine induced status-epilepticus in rats, mifepristone pretreatment, repeated diazepam doses until seizures stop; type: in vivo, Adult male Sprague-Dawley rats; conditions: for cumulative diazepam dose required to stop behavioral seizures (mean ±SEM): diazepam 6 mg/kg 1 h after SE, then 3 mg/kg every two hours
Method: Mifepristone is a yellow powdery substance and is available commercially (Sigma, St. Louis, Mo.). Adult male Sprague-Dawley rats were implanted with electrodes in CA1 and frontal cortex. After one week of recovery, rats were put in recording cages and connected to EEG monitoring system for continuous video-EEG recording. Rats were then treated with mifepristone (25 mg/kg body weight) one hour before the pilocarpine injection. Thirty minutes later rats were treated with scopalamine (1 mg/kg body weight) to reduce peripheral side effects of pilocarpine. Rats were injected with pilocarpine (385 mg/kg body weight) 30 minutes after the scopalamine injection to induce status-epilepticus. One hour after declared status-epilepticus, rats were treated with diazepam (6 mg/kg) to stop the seizures. Every two hours rats were monitored for signs of behavioral seizures and if required they were injected with 3 mg/kg diazepam until they completely stop seizing. The process was repeated until the rats completely stopped seizing. […] This example was presented by inventors in an article titled “Effects of Glucocorticoid Receptor Activity on Diazepam Efficacy in Terminating Status-Epilepticus in Adult Rats,” Epilepsia Vol. 45, Suppl. 7, page 146, October, 2004.
The histogram represents mean (±SEM) cumulative diazepam dose (mg/kg body weight) required to stop behavioral seizures.

[3] = system: status epilepticus; assay: Mifepristone given 15 minutes after onset of SE, diazepam after 1 hour, hourly monitoring for behavioral seizures; type: in vivo, rats; conditions: for rats that stopped seizing: 5 and 6 hours after DZ treatment
Method: In this experiment, mifepristone was given 15 minutes after onset of SE, but prior to administering the first dose of diazepam (DZ). Diazepam (7.5 mg/kg) was given after 1 hour of onset of SE. After DZ treatment, rats were monitored hourly for behavioral seizures.

[4] = system: pilocarpine induced status-epilepticus; assay: Pilocarpine induced status-epilepticus in rats, mifepristone pretreatment, single diazepam dose, behavioral seizures (Racine stage); type: in vivo; conditions: not pretreated with mifepristone; single diazepam dose 7.5 mg/kg given 30 minutes after status-epilepticus; n=5
[5] = system: pilocarpine induced status-epilepticus; assay: EEG (cortex and hippocampus) 24 hours after pilocarpine injection; type: in vivo; conditions: rats that received mifepristone versus rats without treatment

CC(=O)O[C@]1(C(C)=O)CC[C@H]2[C@@H]3C=C(Cl)C4=CC(=O)[C@@H]5C[C@@H]5[C@]4(C)[C@H]3CC[C@@]21C [CYP, cyproterone acetate]
protective activity of clonazepam against maximum electroshock ([1]; male mice): improved

CC/C(=C(\c1ccccc1)c1ccc(OCCN(C)C)cc1)c1ccccc1 [TXF, tamoxifen]
protective activity of clonazepam against maximum electroshock ([1]; female mice): improved

CN1C(=O)CN=C(c2ccccc2)c2cc(Cl)ccc21 [diazepam]
cumulative diazepam dose required to stop behavioral seizures (mean ±SEM) ([2]; rats that did not receive mifepristone, ±0.5, n=20): 10.2 mg/kg
rats that stopped seizing ([3]; diazepam 7.5 mg/kg, rats not receiving mifepristone): 33%
rats that stopped seizing by 4 hours [4]: 1/5

CC#C[C@]1(O)CC[C@H]2[C@@H]3CCC4=CC(=O)CCC4=C3[C@@H](c3ccc(N(C)C)cc3)C[C@@]21C [mifepristone, 17-beta-hydroxy-11-beta-(4-dimethyl-aminophenyl)-17-alpha(1-propynyl)-estra-4,9-dien-3-one]
lower cumulative diazepam dose to terminate behavioral seizures compared to rats not pretreated with mifepristone ([2]; mifepristone pretreatment before pilocarpine, P<0.0005): 26.5%
cumulative diazepam dose required to stop behavioral seizures (mean ±SEM) ([2]; rats pretreated with mifepristone 25 mg/kg one hour before pilocarpine, ±0.41, n=14, p<0.0005): 7.5 mg/kg
rats that had stopped seizing, compared to rats that did not receive mifepristone ([3]; 3 to 6 hours after DZ treatment, mifepristone 15 minutes after onset of SE, diazepam 7.5 mg/kg 1 hour after onset): significantly more
rats that stopped seizing ([3]; mifepristone 15 minutes after onset of SE plus diazepam 7.5 mg/kg, p<0.018, Kaplan-Meier): 100%
frequency of spike-wave discharges and seizure recurrence [5]: lower frequency of spike-wave discharges and seizure recurrence
effect on protective action of antiepileptic drugs against maximal electroshock-induced seizures ([1]; in combination with clonazepam, carbamazepine, phenobarbital, mice): failed to affect their protective action
effect on electrically-induced seizures ([1]; used alone, mice): no effect

Reference: US20090156565A1, “COMPOSITION AND USE THEREOF IN ENHANCING A THERAPEUTIC EFFECT OF AN ANTIEPILEPTIC DRUG” (priority 2004, published 2009)
